Assay: Spectroscopic measurements (absorption, emission, quantum yield, extinction coefficient)
Type: physicochemical
[1] = BDNCA library, difference emission minus absorption
[2] = BDNCA library, extinction coefficient; in M-1 cm-1 (unit assumed)
[3] = BDNCA library, fluorescence emission
[4] = absorption maximum, BDNCA library
[5] = difference of emission and absorption maxima
[6] = extinction coefficient, BDNCA library; in M-1 cm-1 (unit assumed)
[7] = fluorescence emission maximum, BDNCA library

SMILES: COc1cc(/C=C/C2=[N+]3C(=C(c4ccc(NC(=O)CCl)cc4)c4cccn4[B-]3(F)F)C(C)=C2)cc(I)c1OC [BDNCA-242]
- Qunt. Yield (BDNCA library): 0.14
- Abs (BDNCA library, absorption): 561 nm
- Flu-Abs [1]: 25
- ε [2]: 70,847
- Flu [3]: 586

SMILES: CC1=CC(/C=C/c2c(Cl)ccc(C)c2F)=[N+]2C1=C(c1ccc(NC(=O)CCl)cc1)c1cccn1[B-]2(F)F [BDNCA-246]
- Qunt. Yield (BDNCA library): 0.09
- Abs (BDNCA library, absorption): 554 nm
- Flu-Abs [1]: 19
- ε [2]: 43,387
- Flu [3]: 573

SMILES: CC1=CC(/C=C/c2ccc(C)c(F)c2)=[N+]2C1=C(c1ccc(NC(=O)CCl)cc1)c1cccn1[B-]2(F)F [BDNCA-249]
- Qunt. Yield (BDNCA library): 0.12
- Abs (BDNCA library, absorption): 556 nm
- Flu-Abs [1]: 21
- ε [2]: 71,945
- Flu [3]: 577

SMILES: COc1ccc([N+](=O)[O-])cc1/C=C/C1=[N+]2C(=C(c3ccc(NC(=O)CCl)cc3)c3cccn3[B-]2(F)F)C(C)=C1 [BDNCA-250]
- Qunt. Yield (BDNCA library): 0.12
- Abs (BDNCA library, absorption): 559 nm
- Flu-Abs [1]: 22
- ε [2]: 53,547
- Flu [3]: 581

SMILES: CCc1ccccc1/C=C/c1cc(C)c2n1[B-](F)(F)[N+]1=CC=CC1=C2c1ccc(NC(=O)CCl)cc1 [BDNCA-251]
- Qunt. Yield (BDNCA library): 0.11
- Abs (BDNCA library, absorption): 555 nm
- Flu-Abs [1]: 23
- ε [2]: 54,096
- Flu [3]: 578

SMILES: CCc1ccc(/C=C/C2=[N+]3C(=C(c4ccc(NC(=O)CCl)cc4)c4cccn4[B-]3(F)F)C(C)=C2)cc1[N+](=O)[O-] [BDNCA-252]
- Qunt. Yield (BDNCA library): 0.08
- Abs (BDNCA library, absorption): 556 nm
- Flu-Abs [1]: 20
- ε [2]: 57,666
- Flu [3]: 576

SMILES: COc1cccc(F)c1/C=C/C1=[N+]2C(=C(c3ccc(NC(=O)CCl)cc3)c3cccn3[B-]2(F)F)C(C)=C1 [BDNCA-254]
- Qunt. Yield (BDNCA library): 0.09
- Abs (BDNCA library, absorption): 559 nm
- Flu-Abs [1]: 22
- ε [2]: 56,018
- Flu [3]: 581

SMILES: Cc1ccc(/C=C/c2cc(C)c3n2[B-](F)(F)[N+]2=CC=CC2=C3c2ccc(NC(=O)CCl)cc2)cc1[N+](=O)[O-] [BDNCA-255]
- Qunt. Yield (BDNCA library): 0.10
- Abs (BDNCA library, absorption): 556 nm
- Flu-Abs [1]: 19
- ε [2]: 62,059
- Flu [3]: 575

SMILES: Cc1cc(/C=C/c2cccc(Br)c2O)n2c1C(c1ccc(NC(=O)CCl)cc1)=C1C=CC=[N+]1[B-]2(F)F [BDNCA-256]
- Qunt. Yield (BDNCA library): 0.04
- Abs (BDNCA library, absorption): 561 nm
- Flu-Abs [1]: 21
- ε [2]: 52,449
- Flu [3]: 582

SMILES: COc1cc(/C=C/C2=[N+]3C(=C(c4ccc(NC(=O)CCl)cc4)c4cccn4[B-]3(F)F)C(C)=C2)cc(Br)c1OC [BDNCA-259]
- Qunt. Yield (BDNCA library): 0.11
- Abs (BDNCA library, absorption): 561 nm
- Flu-Abs [1]: 21
- ε [2]: 49,428
- Flu [3]: 582

SMILES: COc1ccc(/C=C/C2=[N+]3C(=C(c4ccc(NC(=O)CCl)cc4)c4cccn4[B-]3(F)F)C(C)=C2)cc1Br [BDNCA-260]
- Qunt. Yield (BDNCA library): 0.19
- Abs (BDNCA library, absorption): 564 nm
- Flu-Abs [1]: 27
- ε [2]: 86,499
- Flu [3]: 591

SMILES: COc1ccc(/C=C/c2cc(C)c3n2[B-](F)(F)[N+]2=CC=CC2=C3c2ccc(NC(=O)CCl)cc2)c(Br)c1O [BDNCA-261]
- Qunt. Yield (BDNCA library): 0.01
- Abs (BDNCA library, absorption): 567 nm
- Flu-Abs [1]: 29
- ε [2]: 49,703
- Flu [3]: 596

SMILES: CC1=CC(/C=C/c2c(Br)ccc3c2OCO3)=[N+]2C1=C(c1ccc(NC(=O)CCl)cc1)c1cccn1[B-]2(F)F [BDNCA-262]
- Qunt. Yield (BDNCA library): 0.07
- Abs (BDNCA library, absorption): 561 nm
- Flu-Abs [1]: 21
- ε [2]: 68,924
- Flu [3]: 582

SMILES: CCCCc1ccc(/C=C/C2=[N+]3C(=C(c4ccc(NC(=O)CCl)cc4)c4cccn4[B-]3(F)F)C(C)=C2)cc1 [BDNCA-263]
- Qunt. Yield (BDNCA library): 0.17
- Abs (BDNCA library, absorption): 559 nm
- Flu-Abs [1]: 23
- ε [2]: 124,394
- Flu [3]: 582

SMILES: COc1cc(/C=C/C2=[N+]3C(=C(c4ccc(NC(=O)CCl)cc4)c4cccn4[B-]3(F)F)C(C)=C2)ccc1OCCBr [BDNCA-268]
- Qunt. Yield (BDNCA library): 0.12
- Abs (BDNCA library, absorption): 569 nm
- Flu-Abs [1]: 40
- ε [2]: 54,371
- Flu [3]: 609

SMILES: COc1ccc(/C=C/C2=[N+]3C(=C(c4ccc(NC(=O)CCl)cc4)c4cccn4[B-]3(F)F)C(C)=C2)cc1Cl [BDNCA-274]
- Qunt. Yield (BDNCA library): 0.15
- Abs (BDNCA library, absorption): 563 nm
- Flu-Abs [1]: 27
- ε [2]: 71,670
- Flu [3]: 590

SMILES: COc1cc(Cl)cc(/C=C/C2=[N+]3C(=C(c4ccc(NC(=O)CCl)cc4)c4cccn4[B-]3(F)F)C(C)=C2)c1O [BDNCA-275]
- Qunt. Yield (BDNCA library): 0.01
- Abs (BDNCA library, absorption): 563 nm
- Flu-Abs [1]: 22
- ε [2]: 60,686
- Flu [3]: 585

SMILES: Cc1cc(/C=C/c2ccc(Oc3ccc(Cl)cc3)cc2)n2c1C(c1ccc(NC(=O)CCl)cc1)=C1C=CC=[N+]1[B-]2(F)F [BDNCA-277]
- Qunt. Yield (BDNCA library): 0.15
- Abs (BDNCA library, absorption): 561 nm
- Flu-Abs [1]: 24
- ε [2]: 65,080
- Flu [3]: 585

SMILES: COc1cccc(/C=C/C2=[N+]3C(=C(c4ccc(NC(=O)CCl)cc4)c4cccn4[B-]3(F)F)C(C)=C2)c1Cl [BDNCA-281]
- Qunt. Yield (BDNCA library): 0.14
- Abs (BDNCA library, absorption): 556 nm
- Flu-Abs [1]: 20
- ε [2]: 79,908
- Flu [3]: 576

SMILES: COc1cc(Cl)cc(/C=C/C2=[N+]3C(=C(c4ccc(NC(=O)CCl)cc4)c4cccn4[B-]3(F)F)C(C)=C2)c1OC [BDNCA-282]
- Qunt. Yield (BDNCA library): 0.12
- Abs (BDNCA library, absorption): 557 nm
- Flu-Abs [1]: 20
- ε [2]: 52,723
- Flu [3]: 577

SMILES: CC1=CC(/C=C/c2cccc(O)c2Cl)=[N+]2C1=C(c1ccc(NC(=O)CCl)cc1)c1cccn1[B-]2(F)F [BDNCA-283]
- Qunt. Yield (BDNCA library): 0.05
- Abs (BDNCA library, absorption): 556 nm
- Flu-Abs [1]: 18
- ε [2]: 27,460
- Flu [3]: 574

SMILES: CC1=CC(/C=C/c2ccc(-c3cccc(Cl)c3)o2)=[N+]2C1=C(c1ccc(NC(=O)CCl)cc1)c1cccn1[B-]2(F)F [BDNCA-284]
- Qunt. Yield (BDNCA library): 0.04
- Abs (BDNCA library, absorption): 595 nm
- Flu-Abs [1]: 42
- ε [2]: 31,579
- Flu [3]: 637

SMILES: CC1=CC(/C=C/c2c(C)cccc2Cl)=[N+]2C1=C(c1ccc(NC(=O)CCl)cc1)c1cccn1[B-]2(F)F [BDNCA-285]
- Qunt. Yield (BDNCA library): 0.12
- Abs (BDNCA library, absorption): 544 nm
- Flu-Abs [1]: 27
- ε [2]: 44,211
- Flu [3]: 571

SMILES: CC1=CC(/C=C/c2ccc(C)c(Cl)c2)=[N+]2C1=C(c1ccc(NC(=O)CCl)cc1)c1cccn1[B-]2(F)F [BDNCA-289]
- Qunt. Yield (BDNCA library): 0.16
- Abs (BDNCA library, absorption): 560 nm
- Flu-Abs [1]: 26
- ε [2]: 60,686
- Flu [3]: 586

SMILES: CC1=CC(/C=C/c2ccc(Oc3cccc(Cl)c3)cc2)=[N+]2C1=C(c1ccc(NC(=O)CCl)cc1)c1cccn1[B-]2(F)F [BDNCA-290]
- Qunt. Yield (BDNCA library): 0.14
- Abs (BDNCA library, absorption): 557 nm
- Flu-Abs [1]: 20
- ε [2]: 65,629
- Flu [3]: 577

SMILES: COc1cc(/C=C/C2=[N+]3C(=C(c4ccc(NC(=O)CCl)cc4)c4cccn4[B-]3(F)F)C(C)=C2)cc(Cl)c1OC [BDNCA-294]
- Qunt. Yield (BDNCA library): 0.14
- Abs (BDNCA library, absorption): 560 nm
- Flu-Abs [1]: 21
- ε [2]: 63,158
- Flu [3]: 581

SMILES: COc1cccc(Oc2ccccc2/C=C/C2=[N+]3C(=C(c4ccc(NC(=O)CCl)cc4)c4cccn4[B-]3(F)F)C(C)=C2)c1 [BDNCA-298]
- Qunt. Yield (BDNCA library): 0.14
- Abs (BDNCA library, absorption): 558 nm
- Flu-Abs [1]: 23
- ε [2]: 67,277
- Flu [3]: 581

SMILES: CC1=CC(/C=C/c2cccc(Oc3ccc(Cl)c(Cl)c3)c2)=[N+]2C1=C(c1ccc(NC(=O)CCl)cc1)c1cccn1[B-]2(F)F [BDNCA-299]
- Qunt. Yield (BDNCA library): 0.09
- Abs (BDNCA library, absorption): 556 nm
- Flu-Abs [1]: 19
- ε [2]: 49,703
- Flu [3]: 575

SMILES: CC1=CC(/C=C/c2ccc(Oc3ccc(C)cc3)cc2)=[N+]2C1=C(c1ccc(NC(=O)CCl)cc1)c1cccn1[B-]2(F)F [BDNCA-300]
- Qunt. Yield (BDNCA library): 0.21
- Abs (BDNCA library, absorption): 563 nm
- Flu-Abs [1]: 27
- ε [2]: 102,151
- Flu [3]: 590

SMILES: COc1cc2ccccc2c(/C=C/C2=[N+]3C(=C(c4ccc(NC(=O)CCl)cc4)c4cccn4[B-]3(F)F)C(C)=C2)c1OC [BDNCA-301]
- Qunt. Yield (BDNCA library): 0.24
- Abs (BDNCA library, absorption): 567 nm
- Flu-Abs [1]: 36
- ε [2]: 85,950
- Flu [3]: 603

SMILES: CC1=CC(/C=C/c2cccc(I)c2)=[N+]2C1=C(c1ccc(NC(=O)CCl)cc1)c1cccn1[B-]2(F)F [BDNCA-303]
- Qunt. Yield (BDNCA library): 0.12
- Abs (BDNCA library, absorption): 556 nm
- Flu-Abs [1]: 19
- ε [2]: 70,847
- Flu [3]: 575

SMILES: Cc1cc(/C=C/c2ccc(Oc3ccc(C=O)cc3)cc2)n2c1C(c1ccc(NC(=O)CCl)cc1)=C1C=CC=[N+]1[B-]2(F)F [BDNCA-304]
- Qunt. Yield (BDNCA library): 0.02
- Abs (BDNCA library, absorption): 561 nm
- Flu-Abs [1]: 25
- ε [2]: 18,673
- Flu [3]: 586

SMILES: COc1cc(F)c(/C=C/c2cc(C)c3n2[B-](F)(F)[N+]2=CC=CC2=C3c2ccc(NC(=O)CCl)cc2)cc1OC [BDNCA-305]
- Qunt. Yield (BDNCA library): 0.22
- Abs (BDNCA library, absorption): 568 nm
- Flu-Abs [1]: 38
- ε [2]: 153,227
- Flu [3]: 606

SMILES: Cc1cc(/C=C/c2ccc(F)c(Oc3ccccc3)c2)n2c1C(c1ccc(NC(=O)CCl)cc1)=C1C=CC=[N+]1[B-]2(F)F [BDNCA-311]
- Abs [4]: 555 nm
- Flu-Abs [5]: 20
- ε [6]: 57,117
- Flu [7]: 575
- Qunt. Yield (quantum yield, BDNCA library): 0.09

SMILES: COc1cccc(/C=C/C2=[N+]3C(=C(c4ccc(NC(=O)CCl)cc4)c4cccn4[B-]3(F)F)C(C)=C2)c1F [BDNCA-314]
- Abs [4]: 554 nm
- Flu-Abs [5]: 21
- ε [6]: 52,998
- Flu [7]: 575
- Qunt. Yield (quantum yield, BDNCA library): 0.11

SMILES: CC1=CC(/C=C/c2cccc([N+](=O)[O-])c2O)=[N+]2C1=C(c1ccc(NC(=O)CCl)cc1)c1cccn1[B-]2(F)F [BDNCA-315]
- Abs [4]: 655 nm
- ε [6]: 15,652
- Flu [7]: weak
- Qunt. Yield (quantum yield, BDNCA library): weak

Source: patent US9423396B2, “Bodipy structure fluorescence probes for diverse biological applications” (National University of Singapore, priority 2011, dated 2016)
